Measurements taken from paper PMC7259600, “The crystal structures of Thermus thermophilus CMP kinase complexed with a phosphoryl group acceptor and donor” (PLoS ONE, 2020).

Tests used:
[1] = target: T1, ttCMPK (CMP kinase of Thermus thermophilus HB8) (Thermus thermophilus, UniProt Q5SL35); assay: X-ray crystal structure of the ternary complex (crystal soaked with CMP, ATP and GdCl3); type: binding; conditions: with CDP and Gd3+; 1.6 A, closed form; phosphoryl donor site
T1 construct: gene cmk; full-length, expressed from pET-11a (NdeI/BamHI) in E. coli BL21(DE3), no tag mentioned; SeMet-labelled protein for the CMP open form; residue numbers up to 209
T1 sequence (Q5SL35 1-208): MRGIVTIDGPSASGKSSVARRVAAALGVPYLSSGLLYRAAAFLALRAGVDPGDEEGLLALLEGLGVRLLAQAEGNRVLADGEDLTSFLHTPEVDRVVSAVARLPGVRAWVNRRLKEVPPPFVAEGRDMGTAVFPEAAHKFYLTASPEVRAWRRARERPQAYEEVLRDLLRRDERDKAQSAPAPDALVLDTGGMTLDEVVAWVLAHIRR

[2] = target: T1, ttCMPK (CMP kinase of Thermus thermophilus HB8); assay: X-ray crystal structure of the complex (co-crystallisation); type: binding; conditions: closed form 1.5 A (3AKE; AMP-PCP and MgCl2 in drop, no AMP-PCP density); open form 2.2 A (3W8N; SeMet protein, MgCl2); phosphoryl acceptor site

Row | Compound | X-ray crystal structure of the ternary complex (crystal soaked with CMP, ATP and) [1] | X-ray crystal structure of the complex (co-crystallisation) [2]
1 | Nc1ncnc2c1ncn2[C@@H]1O[C@H](COP(=O)(O)OP(=O)(O)O)[C@@H](O)[C@H]1O [ADP] | ADP is recognized by several residues from both the CORE and LID domains | 
2 | Nc1ccn([C@@H]2O[C@H](COP(=O)(O)O)[C@@H](O)[C@H]2O)c(=O)n1 [CMP] |  | 3W8N (CMP "open" complex), 3AKE (CMP "closed" complex)
